Where a name gives a salt, the structure may show the parent alone. One block for each compound: values may come before it. Calls of active or inactive are those of the source.
Legend:
[1] = molecular target: T1, Ubiquitin-conjugating enzyme E2 N (Homo sapiens, UniProt P61088); assay type: functional;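 further: Dose-response confirmation in a TR-FRET assay detecting UBC13-driven polyubiquitin chain formation, inhibition measured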
T1 sequence (P61088 whole entry): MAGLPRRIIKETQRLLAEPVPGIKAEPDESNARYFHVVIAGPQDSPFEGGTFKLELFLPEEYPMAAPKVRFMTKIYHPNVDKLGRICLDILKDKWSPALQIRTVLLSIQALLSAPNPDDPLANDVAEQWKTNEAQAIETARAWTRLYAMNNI

Fatty acid synthase [2] = molecular target: T2, Fatty acid synthase (Homo sapiens, UniProt P49327); experiment: FAS thioesterase domain inhibitors, dose response, biochemical, kinetic fluorescence intensity (AID 624326); assay type: functional;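 further: rate of fluorescence rise from hydrolysis of a fluorogenic O-methyl fluorescein ester substrate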
Fatty acid synthase [3] = molecular target: T2, Fatty acid synthase; experiment: FAS thioesterase domain inhibitors, dose response, biochemical, endpoint fluorescence intensity, uHTS hits (AID 624327); assay type: functional;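 further: fluorescence from hydrolysis of an O-methyl fluorescein acyl ester substrate by the enzyme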
[4] = molecular target: T3, Carboxy-terminal domain RNA polymerase II polypeptide A small phosphatase 1 (Homo sapiens, UniProt Q9GZU7); experiment: inhibitors of CTDSP1, concentration-response testing, biochemical assay, absorbance-based, actives from ultra-high-throughput screening (AID 540297); assay type: functional
T3 sequence (Q9GZU7 whole entry): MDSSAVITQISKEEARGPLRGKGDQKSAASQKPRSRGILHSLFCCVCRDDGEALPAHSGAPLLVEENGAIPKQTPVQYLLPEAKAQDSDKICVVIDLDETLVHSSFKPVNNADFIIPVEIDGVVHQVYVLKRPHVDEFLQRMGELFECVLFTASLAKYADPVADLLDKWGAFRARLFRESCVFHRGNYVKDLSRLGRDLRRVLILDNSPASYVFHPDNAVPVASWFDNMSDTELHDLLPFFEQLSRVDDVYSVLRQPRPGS

[5] = Luminescence Cell-Based Dose Confirmation HTS to Identify Inhibitors of Platelet Dense Granule Release. [Related pubchem assays: 1663 (Primary HTS), 1678 (Summary of Project)]; assay type: functional
[6] = molecular target: Luciferin 4-monooxygenase (Photinus pyralis, UniProt P08659); experiment: firefly luciferase enzyme inhibitors, dose response, biochemical, luminescence (AID 1891)
[7] = molecular target: T4, Corticotropin-releasing factor receptor 2/Corticotropin-releasing factor-binding protein (Homo sapiens, UniProt P24387+Q13324); experiment: activators of CRF receptor 2 with binding protein – uHTS hits, confirmation (AID 602473); assay type: functional; settings: read-out: EC50_Mean
T4 sequence (Q13324 whole entry): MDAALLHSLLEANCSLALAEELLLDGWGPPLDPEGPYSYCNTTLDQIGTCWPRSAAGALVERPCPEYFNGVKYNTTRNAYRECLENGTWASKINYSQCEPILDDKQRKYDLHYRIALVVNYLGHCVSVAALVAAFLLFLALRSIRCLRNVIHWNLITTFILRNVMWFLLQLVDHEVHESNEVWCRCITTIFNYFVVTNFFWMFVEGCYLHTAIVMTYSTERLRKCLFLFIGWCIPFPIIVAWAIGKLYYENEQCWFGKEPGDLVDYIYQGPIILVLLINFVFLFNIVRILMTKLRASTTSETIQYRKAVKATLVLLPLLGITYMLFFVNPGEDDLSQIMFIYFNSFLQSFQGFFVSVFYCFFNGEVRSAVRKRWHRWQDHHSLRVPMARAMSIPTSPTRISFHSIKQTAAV
T4 sequence (P24387 whole entry): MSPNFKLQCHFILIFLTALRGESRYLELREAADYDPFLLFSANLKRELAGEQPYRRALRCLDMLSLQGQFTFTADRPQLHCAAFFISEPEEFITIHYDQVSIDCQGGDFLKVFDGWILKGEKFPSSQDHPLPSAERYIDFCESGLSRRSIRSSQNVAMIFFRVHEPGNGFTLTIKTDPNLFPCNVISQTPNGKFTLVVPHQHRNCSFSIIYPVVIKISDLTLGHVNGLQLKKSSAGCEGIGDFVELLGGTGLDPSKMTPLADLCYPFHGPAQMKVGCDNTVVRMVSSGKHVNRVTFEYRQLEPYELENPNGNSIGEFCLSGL

[8] = molecular target: T4, Corticotropin-releasing factor receptor 2/Corticotropin-releasing factor-binding protein; experiment: Dose Response confirmation of uHTS hits for small molecule antagonists of the CRF-binding protein and CRF-R2 receptor complex.; assay type: functional; settings: read-out: IC50_Mean
H9c2 = experiment: cells; assay type: functional, cell-based; settings: Rattus norvegicus, H9c2, Myocardium;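 further: confirmatory concentration-response retest of ultra-high-throughput screening hits for modulation of myocardial damage; cell death induced by hydrogen peroxide oxidative stress; compound pretreatment for 60 min then peroxide exposure for 2 h; potency is for protecting the cells against peroxide damage rather than for killing them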
[9] = molecular target: T5, RNA-binding protein pos-1 (Caenorhabditis elegans, UniProt G5EF15); experiment: inhibitors of POS-1/mex-3 RNA binding, dose response, biochemical, fluorescence polarization (AID 1964);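 further: purified POS-1 fused to maltose binding protein made in E. coli; potency of compounds blocking POS-1 binding to fluorescent RNA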
T5 sequence (G5EF15 whole entry): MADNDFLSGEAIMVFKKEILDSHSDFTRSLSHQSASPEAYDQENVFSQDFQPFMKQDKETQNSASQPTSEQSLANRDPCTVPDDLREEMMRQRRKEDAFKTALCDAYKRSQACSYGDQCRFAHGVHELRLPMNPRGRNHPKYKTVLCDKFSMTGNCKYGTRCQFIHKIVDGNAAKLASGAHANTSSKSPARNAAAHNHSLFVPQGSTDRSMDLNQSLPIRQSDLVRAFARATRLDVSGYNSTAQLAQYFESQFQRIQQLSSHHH

[10] = molecular target: T6, Zinc finger protein mex-5 (Caenorhabditis elegans, UniProt Q9XUB2); experiment: MEX-5/TCR-2 RNA interaction inhibitors, dose response, biochemical, C. elegans, fluorescence polarization (AID 1960)
T6 sequence (Q9XUB2 whole entry): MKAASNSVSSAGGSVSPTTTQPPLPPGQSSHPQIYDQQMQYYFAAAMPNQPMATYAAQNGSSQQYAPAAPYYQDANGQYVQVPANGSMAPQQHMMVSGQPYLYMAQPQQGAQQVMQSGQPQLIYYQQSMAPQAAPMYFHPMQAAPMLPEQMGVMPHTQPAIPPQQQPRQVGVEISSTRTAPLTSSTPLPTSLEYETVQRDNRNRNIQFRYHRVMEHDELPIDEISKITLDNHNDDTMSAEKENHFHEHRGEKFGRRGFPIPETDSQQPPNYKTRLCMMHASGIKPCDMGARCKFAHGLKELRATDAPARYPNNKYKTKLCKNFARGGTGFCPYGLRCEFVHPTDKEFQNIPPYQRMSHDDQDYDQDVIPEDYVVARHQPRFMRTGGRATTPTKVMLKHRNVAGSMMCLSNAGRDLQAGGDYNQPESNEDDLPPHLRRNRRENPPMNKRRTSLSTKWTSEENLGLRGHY

[11] = HEK293T cytotoxicity, dose response, cytotoxicity control for miR-122 modulator project, cell-based, inhibitor set, cherry-pick, set 2 (AID 720697); assay type: functional
[12] = molecular target: T7, Mannose-6-phosphate isomerase (Homo sapiens, UniProt P34949); experiment: human PMI inhibitors, high substrate, primary screen, biochemical, fluorescence intensity, high mannose 6-phosphate (AID 1220)
T7 sequence (P34949 whole entry): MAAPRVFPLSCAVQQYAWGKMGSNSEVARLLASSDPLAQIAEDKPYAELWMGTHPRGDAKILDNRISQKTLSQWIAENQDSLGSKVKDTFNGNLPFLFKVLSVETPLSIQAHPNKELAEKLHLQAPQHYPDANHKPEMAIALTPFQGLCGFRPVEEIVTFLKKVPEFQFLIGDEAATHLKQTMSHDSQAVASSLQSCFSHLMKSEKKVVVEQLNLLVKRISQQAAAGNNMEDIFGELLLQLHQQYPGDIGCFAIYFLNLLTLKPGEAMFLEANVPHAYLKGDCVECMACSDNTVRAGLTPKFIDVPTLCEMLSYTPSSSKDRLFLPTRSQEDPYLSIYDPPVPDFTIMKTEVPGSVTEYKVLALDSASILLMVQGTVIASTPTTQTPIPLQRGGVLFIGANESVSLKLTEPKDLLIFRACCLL

[13] = P. falciparum Dd2 growth inhibitors, dose response, SYBR Green, cherry-picked samples (AID 1159567); assay type: functional, cell-based
[14] = molecular target: T8, DNA repair protein RAD52 homolog (Homo sapiens, UniProt P43351); assay type: functional, biochemical
T8 sequence (P43351 whole entry): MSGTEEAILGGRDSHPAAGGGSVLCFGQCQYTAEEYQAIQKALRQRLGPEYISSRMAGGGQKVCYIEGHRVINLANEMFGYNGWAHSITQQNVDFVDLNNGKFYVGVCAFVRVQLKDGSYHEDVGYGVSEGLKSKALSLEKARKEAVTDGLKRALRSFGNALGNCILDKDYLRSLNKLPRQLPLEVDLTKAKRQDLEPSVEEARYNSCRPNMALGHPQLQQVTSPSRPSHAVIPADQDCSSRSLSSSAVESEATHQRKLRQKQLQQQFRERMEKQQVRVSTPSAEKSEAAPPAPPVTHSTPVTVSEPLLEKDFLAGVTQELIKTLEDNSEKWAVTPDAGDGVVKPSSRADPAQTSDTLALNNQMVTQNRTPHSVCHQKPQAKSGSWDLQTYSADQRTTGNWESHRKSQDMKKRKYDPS

T2 sequence (P49327 whole entry, the tested form may be a part): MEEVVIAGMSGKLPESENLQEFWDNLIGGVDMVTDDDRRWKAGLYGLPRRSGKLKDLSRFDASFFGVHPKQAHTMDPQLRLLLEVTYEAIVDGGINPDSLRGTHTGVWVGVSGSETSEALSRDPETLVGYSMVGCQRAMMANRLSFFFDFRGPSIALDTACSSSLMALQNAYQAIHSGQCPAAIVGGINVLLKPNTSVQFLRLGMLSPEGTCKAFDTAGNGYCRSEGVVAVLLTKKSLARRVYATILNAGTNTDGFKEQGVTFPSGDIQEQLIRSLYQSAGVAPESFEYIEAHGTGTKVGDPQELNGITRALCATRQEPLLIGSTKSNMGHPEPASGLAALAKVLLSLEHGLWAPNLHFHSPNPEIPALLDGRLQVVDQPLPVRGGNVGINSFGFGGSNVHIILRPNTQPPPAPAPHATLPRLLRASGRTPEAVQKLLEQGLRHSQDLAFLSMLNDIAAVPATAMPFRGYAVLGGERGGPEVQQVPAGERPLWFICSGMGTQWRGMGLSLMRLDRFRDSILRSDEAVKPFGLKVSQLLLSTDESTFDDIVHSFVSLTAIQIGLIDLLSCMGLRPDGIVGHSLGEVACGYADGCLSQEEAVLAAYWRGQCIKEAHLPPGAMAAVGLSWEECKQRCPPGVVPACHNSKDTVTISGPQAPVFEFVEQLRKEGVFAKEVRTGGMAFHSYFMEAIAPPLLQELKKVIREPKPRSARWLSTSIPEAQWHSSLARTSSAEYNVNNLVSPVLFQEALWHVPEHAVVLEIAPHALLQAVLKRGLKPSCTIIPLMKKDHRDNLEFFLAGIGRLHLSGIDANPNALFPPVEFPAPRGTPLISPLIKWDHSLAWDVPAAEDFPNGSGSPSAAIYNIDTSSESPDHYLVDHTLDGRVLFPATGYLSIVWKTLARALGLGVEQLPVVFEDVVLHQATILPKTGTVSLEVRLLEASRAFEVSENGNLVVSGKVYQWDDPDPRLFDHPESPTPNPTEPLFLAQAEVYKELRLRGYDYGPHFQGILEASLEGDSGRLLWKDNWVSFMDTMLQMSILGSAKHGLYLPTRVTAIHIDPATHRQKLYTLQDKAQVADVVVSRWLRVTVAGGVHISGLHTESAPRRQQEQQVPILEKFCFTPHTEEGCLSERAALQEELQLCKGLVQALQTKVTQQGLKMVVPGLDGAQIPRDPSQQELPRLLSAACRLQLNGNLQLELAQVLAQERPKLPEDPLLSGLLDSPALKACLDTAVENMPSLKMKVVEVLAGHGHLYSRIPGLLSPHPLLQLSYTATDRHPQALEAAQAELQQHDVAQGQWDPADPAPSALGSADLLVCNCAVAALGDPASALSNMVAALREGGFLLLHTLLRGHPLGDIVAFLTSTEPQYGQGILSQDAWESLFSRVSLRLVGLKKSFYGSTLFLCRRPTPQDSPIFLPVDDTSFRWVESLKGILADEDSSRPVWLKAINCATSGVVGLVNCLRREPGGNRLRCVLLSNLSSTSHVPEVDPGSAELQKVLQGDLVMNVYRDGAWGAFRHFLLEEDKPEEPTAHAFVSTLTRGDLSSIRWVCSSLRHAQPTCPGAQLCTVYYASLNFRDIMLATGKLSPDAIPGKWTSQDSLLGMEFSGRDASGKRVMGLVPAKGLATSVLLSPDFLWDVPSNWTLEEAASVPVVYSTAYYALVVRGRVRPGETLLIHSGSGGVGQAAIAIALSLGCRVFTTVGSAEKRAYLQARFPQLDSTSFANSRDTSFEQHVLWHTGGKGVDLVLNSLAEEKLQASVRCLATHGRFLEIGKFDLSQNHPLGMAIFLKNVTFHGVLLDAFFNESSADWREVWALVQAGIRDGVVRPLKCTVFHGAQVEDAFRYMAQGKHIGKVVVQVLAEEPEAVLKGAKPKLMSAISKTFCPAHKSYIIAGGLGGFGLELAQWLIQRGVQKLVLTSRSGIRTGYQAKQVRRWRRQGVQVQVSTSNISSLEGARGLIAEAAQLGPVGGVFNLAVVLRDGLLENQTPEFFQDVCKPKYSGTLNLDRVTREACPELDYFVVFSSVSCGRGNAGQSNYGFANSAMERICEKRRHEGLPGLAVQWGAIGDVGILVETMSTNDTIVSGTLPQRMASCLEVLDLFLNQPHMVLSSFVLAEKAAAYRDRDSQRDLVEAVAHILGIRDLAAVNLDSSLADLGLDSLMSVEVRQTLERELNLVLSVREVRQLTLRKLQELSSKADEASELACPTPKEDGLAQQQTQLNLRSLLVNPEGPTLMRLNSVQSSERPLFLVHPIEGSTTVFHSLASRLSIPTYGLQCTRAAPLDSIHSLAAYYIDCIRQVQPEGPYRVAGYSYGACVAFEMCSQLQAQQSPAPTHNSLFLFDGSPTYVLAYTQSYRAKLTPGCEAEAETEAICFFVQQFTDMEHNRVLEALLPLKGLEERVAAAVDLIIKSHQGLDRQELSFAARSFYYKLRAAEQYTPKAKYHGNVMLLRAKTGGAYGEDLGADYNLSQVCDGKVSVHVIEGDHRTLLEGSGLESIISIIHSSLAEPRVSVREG
Sequence of Luciferin 4-monooxygenase (P08659 whole entry): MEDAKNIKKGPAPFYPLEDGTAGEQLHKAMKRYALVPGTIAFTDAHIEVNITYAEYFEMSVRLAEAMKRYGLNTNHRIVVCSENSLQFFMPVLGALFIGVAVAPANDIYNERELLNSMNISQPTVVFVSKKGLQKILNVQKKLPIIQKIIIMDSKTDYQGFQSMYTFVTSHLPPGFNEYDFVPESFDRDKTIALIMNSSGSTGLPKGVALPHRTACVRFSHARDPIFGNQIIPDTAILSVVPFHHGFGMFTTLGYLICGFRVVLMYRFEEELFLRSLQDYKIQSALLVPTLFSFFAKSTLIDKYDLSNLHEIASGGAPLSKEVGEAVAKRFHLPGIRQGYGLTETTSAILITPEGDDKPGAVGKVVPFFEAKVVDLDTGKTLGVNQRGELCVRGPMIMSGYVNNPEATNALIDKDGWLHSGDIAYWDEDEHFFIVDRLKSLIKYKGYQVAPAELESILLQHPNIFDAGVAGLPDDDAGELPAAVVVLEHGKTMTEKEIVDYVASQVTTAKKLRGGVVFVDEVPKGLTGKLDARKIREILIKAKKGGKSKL

IC50 [1]: > 20 µM (inactive)
Compound: CC(C)n1c(NCc2cc(Cl)ccc2O)nc2ccccc21

IC50 (Fatty acid synthase [2]): 15.9 µM (active)
IC50 (Fatty acid synthase [3]): 10.9 µM (active)
Compound: O=C1CC(c2cccc([N+](=O)[O-])c2)c2cc3c(cc2N1)CCC3 (centres undefined)

IC50 [1]: > 20 µM (inactive)
Compound: CCC1(c2ccccc2)NC(=O)N(CC(=O)Nc2cc(Cl)ccc2N2CCN(C)CC2)C1=O (centres undefined)

IC50 (Fatty acid synthase [2]): 2.13 µM (active)
IC50 (Fatty acid synthase [3]): 2.55 µM (active)
Compound: Cc1cc(Cl)ccc1NC(=O)COC(=O)c1cc([N+](=O)[O-])ccc1N1CCOCC1

IC50 [1]: > 20 µM (inactive)
AC50 [14]: 18.7 µM (active)
Compound: CSc1ccc2c(c1)C(N1CCN(C)CC1)Cc1ccccc1S2 (centres undefined) [METHIOTHEPIN MESYLATE]

The next lines start with the compound.

Compound: COCCN1C(=O)c2oc3ccccc3c(=O)c2C1c1ccc(OC)c(OC)c1 (centres undefined)
IC50 [4]: 5.26 µM (active)

Compound: Cc1cc(C)cc(NC(=O)c2cc(S(=O)(=O)N3CCCC3)cn2C)c1
EC50 [5]: > 112 µM (not active)
EC50 [6]: > 112 µM (not active)

Compound: O=C/C(=C\Nc1ccccn1)c1nc2cc(Cl)ccc2o1
EC50 [7]: > 53 µM (inactive)
IC50 [8]: > 47.1 µM (inactive)
IC50 (H9c2): > 79 µM (inactive)
EC50 [9]: 67.7 µM (active)
EC50 [10]: 36.4 µM (active)

Compound: CC1(C(=O)NS(=O)(=O)c2ccc(C#N)cc2)CCN1C(=O)Cc1ccc(Cl)cc1Cl (centres undefined)
IC50 (Fatty acid synthase [2]): 5.77 µM (active)
IC50 (Fatty acid synthase [3]): 10.1 µM (active)

Compound: CCCNC(=O)Nc1ccc2c(c1)C(=O)N(C)[C@@H]1CC[C@@H](CC(=O)NCC3CCCCC3)O[C@H]1CO2
AC50 [11]: 2.28 µM (active)

Compound: CCC(=O)N1[C@H](CN(C)C(C)=O)[C@H](c2ccc(-c3cccnc3)cc2)[C@@H]1CO
AC50 [11]: 0.561 µM (active)

Compound: Oc1ccc(/C=N/N(Cc2ccccc2)c2ccccc2)c(O)c1O
IC50 [12]: > 50 µM (not active)

Compound: CCC(=O)/N=c1\sc2cc(F)cc(F)c2n1C
EC50 [5]: > 112 µM (not active)
EC50 [6]: > 112 µM (not active)

Compound: O=C(C[C@H]1C[C@@H]2c3cc(NC(=O)Nc4ccccc4)ccc3O[C@@H]2[C@H](CO)O1)NCc1ccccc1
AC50 [13]: 12.4 µM (active)

Reference: ChEMBL document CHEMBL1201862, “PubChem BioAssay data set” (2004)
